Source: patent US20230348358A1, “Serotonin Receptor Modulators” (Northeastern University, priority 2020, published 2023)
pKi: −log10 of the molar value. “Also recorded” adds a separate entry of the source. Read-outs that look alike come from different tables or passages of the source.

What was measured:
FVB mice = experiment: Marble burying; details: mouse, in vivo
Method: For measurement of marble burying (FIG. 7), FVB mice were placed individually, for 10 min, in clean boxes (6 in. ×10 in. ×5 in.) containing 18 clear marbles atop fresh home-bedding. Marbles buried (i.e., marbles 50% covered with bedding) were calculated after the test session.

5HT2B receptors = target: T1, 5HT2B receptors (Homo sapiens, UniProt P41595); experiment: 5HT2B functional assays; type: cell-based
T1 construct: host or cells: HEK293, transient
T1 sequence (P41595 whole entry): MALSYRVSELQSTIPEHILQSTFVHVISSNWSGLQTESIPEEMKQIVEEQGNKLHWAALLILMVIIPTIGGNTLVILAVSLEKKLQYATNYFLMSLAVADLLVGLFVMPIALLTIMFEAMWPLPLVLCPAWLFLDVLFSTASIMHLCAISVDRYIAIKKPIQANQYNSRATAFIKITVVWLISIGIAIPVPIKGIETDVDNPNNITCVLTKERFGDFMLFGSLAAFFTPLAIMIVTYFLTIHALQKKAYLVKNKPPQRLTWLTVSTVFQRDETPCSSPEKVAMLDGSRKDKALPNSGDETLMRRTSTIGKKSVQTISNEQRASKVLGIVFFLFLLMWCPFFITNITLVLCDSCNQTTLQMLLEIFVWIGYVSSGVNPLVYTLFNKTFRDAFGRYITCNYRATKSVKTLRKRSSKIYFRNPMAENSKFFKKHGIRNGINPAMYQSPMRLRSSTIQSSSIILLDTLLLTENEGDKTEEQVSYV

5HT2A receptors [1] = target: T2, 5HT2A receptors (Homo sapiens, UniProt P28223); experiment: 5-HT2A function in HEK cells over-expressing the receptor; type: cell-based
T2 construct: host or cells: HEK293, transient
T2 sequence (P28223 whole entry): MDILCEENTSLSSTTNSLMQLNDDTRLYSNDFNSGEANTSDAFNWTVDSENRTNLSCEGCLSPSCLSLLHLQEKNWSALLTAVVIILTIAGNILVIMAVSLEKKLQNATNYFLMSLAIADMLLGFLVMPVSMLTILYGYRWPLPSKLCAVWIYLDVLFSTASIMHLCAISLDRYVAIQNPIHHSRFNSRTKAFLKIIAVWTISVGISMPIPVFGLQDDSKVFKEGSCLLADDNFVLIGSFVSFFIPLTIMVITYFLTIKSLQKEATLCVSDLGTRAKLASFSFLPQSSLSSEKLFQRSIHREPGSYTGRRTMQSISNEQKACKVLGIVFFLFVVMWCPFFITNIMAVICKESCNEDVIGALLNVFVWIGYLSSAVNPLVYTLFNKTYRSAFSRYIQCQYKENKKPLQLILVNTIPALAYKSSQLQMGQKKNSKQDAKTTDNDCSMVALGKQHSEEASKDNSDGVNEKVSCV

5HT2A receptors [2] = target: T2, 5HT2A receptors; experiment: biochemical; type: binding
C57BI/6J mice [3] = experiment: d-Amphetamine (AMP)-elicited hyperlocomotion; type: in vivo, mouse; details: 5.6 mg/kg; listed as (2S)-5-FPT, HCl
C58/J mice = experiment: Idiopathic stereotypic jumping; type: in vivo, mouse; details: dose-dependent; listed as (2S)-5-FPT, HCl
50 CNS/peripheral sites = experiment: NIMH PDSP / NIDA evaluation at 50 CNS/peripheral sites; type: binding
C57BI/6J mice [4] = experiment: MK-801 elicited stereotypic rotations and hyperlocomotion; type: in vivo, mouse
Excerpt: Regarding glutamate neurotransmission in stereotypy, the NMDA receptor antagonist, MK-801, characteristically elicits stereotypic rotations that appear to mimic monogenetic stereotypy observed in Fmr1 KO mice. Furthermore, mutations and autoantibodies of the NMDA glutamate receptor that decrease its function are causally linked to ASD, intellectual disabilities, and psychiatric symptoms in humans.

C57BI/6J mice [5] = experiment: Social interactions between littermates; type: in vivo, mouse; details: 5.6 mg/kg
Excerpt: After behavioral testing was complete, blind scorers categorized mice into two groups based on number of rears and initiated social interactions, and the two groups differentiated vehicle from (2S)-5-FPT-treated mice with 100% accuracy.

[6] = Plasma and brain concentrations by LC-MS/MS after systemic administration; type: in vivo, mouse; details: for concentration at 30 min / concentration at 60 min / concentration at 90 min: 3.0 mg/kg subcutaneous, mean (SEM); for concentration at 30 min: 30 min after injection; for concentration at 60 min: 60 min after injection; for concentration at 90 min: 90 min after injection
Excerpt: (2S)-5-FPT is neurobehaviorally active after oral administration.

[7] = mouse, brain, read-out: Brain concentration
[8] = mouse, plasma, read-out: Plasma concentration

## CN(C)[C@H]1CCc2c(cccc2-c2ccccc2F)C1.Cl [(S)-5-FPT, (2S)-5-(2-fluorophenyl)-N,N-dimethyl-1,2,3,4-tetrahydronaphthalen-2-amine HCl]
FVB mice
  Marble burying (repetitive behavior): reduces or eliminates repetitive behavior in all models
5HT2B receptors
  5HT2B functional activity: devoid of 5HT2B activity up to 100 μM
5HT2A receptors [1]
  Function at 5-HT2A receptors: weak partial agonist activity
5HT2A receptors [2]
  pKi: ~6.05
C57BI/6J mice [3]
  Hyperlocomotion caused by AMP: did not reduce hyperlocomotion caused by AMP; also recorded: did not significantly decrease hyperlocomotion elicited by amphetamine
C58/J mice
  Stereotypic jumping: potently eliminated stereotypic jumping; also recorded: greater efficacy in this model than the recently reported mGluR5 negative allosteric modulator, GRN-529
50 CNS/peripheral sites
  Activity at 50 CNS/peripheral sites: without activity at 50 CNS/peripheral sites
C57BI/6J mice [4]; 5.6 mg/kg
  Hyperlocomotion caused by MK-801: significantly decreased hyperlocomotion
  MK-801 elicited stereotypical rotations: significantly reduced stereotypical rotations
C57BI/6J mice [4]; without MK-801
  Stereotypic rotational behavior, compound alone: neither (2S)-5-FPT nor AMP caused stereotypic rotational behavior
C57BI/6J mice [5]
  Grooming: decreasing grooming
C57BI/6J mice [5]; listed as (2S)-5-FPT, HCl
  Number of initiated social interactions: significantly increases the number of initiated social interactions
[6]; [7]
  concentration at 30 min: 1780 ng/g
  concentration at 60 min: 2160 ng/g
  concentration at 90 min: 1460 ng/g
[6]; mouse, in vivo
  Blood-brain barrier penetration: readily crosses the blood-brain barrier
[6]; [8]
  concentration at 30 min: 114 ng/mL
  concentration at 60 min: 118 ng/mL
  concentration at 90 min: 70 ng/mL
[6]; plasma levels lower than brain
  Peripheral clearance: rapidly cleared in the periphery
